Target: T1, Human Polθ polymerase domain (aa1820-2590) (Homo sapiens, UniProt O75417)
T1 construct: Human Polθ polymerase domain (aa1820-2590) was expressed in E. coli; made in house; host or cells: E. coli
T1 sequence (O75417 1820-2590): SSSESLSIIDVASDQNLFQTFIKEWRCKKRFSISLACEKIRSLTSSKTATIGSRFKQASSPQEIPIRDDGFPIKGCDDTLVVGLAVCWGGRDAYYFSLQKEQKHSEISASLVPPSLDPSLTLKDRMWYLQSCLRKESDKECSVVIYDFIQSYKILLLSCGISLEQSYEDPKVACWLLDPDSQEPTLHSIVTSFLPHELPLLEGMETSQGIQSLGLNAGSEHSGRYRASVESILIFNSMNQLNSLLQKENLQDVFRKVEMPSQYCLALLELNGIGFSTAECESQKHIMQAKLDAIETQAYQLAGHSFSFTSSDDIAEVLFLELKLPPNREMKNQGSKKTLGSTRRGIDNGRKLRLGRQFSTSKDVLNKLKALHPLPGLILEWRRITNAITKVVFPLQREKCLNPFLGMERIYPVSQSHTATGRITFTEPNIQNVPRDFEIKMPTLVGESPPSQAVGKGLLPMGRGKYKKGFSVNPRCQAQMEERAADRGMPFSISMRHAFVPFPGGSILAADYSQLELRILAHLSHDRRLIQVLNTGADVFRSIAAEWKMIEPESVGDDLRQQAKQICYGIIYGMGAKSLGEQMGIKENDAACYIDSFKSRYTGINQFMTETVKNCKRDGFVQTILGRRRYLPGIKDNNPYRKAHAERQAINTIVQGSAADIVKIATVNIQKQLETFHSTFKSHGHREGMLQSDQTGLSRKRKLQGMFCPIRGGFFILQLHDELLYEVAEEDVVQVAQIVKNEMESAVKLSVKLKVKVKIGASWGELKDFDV
Assay: Polθ Polymerase Domain Kinact/KI Assay (PicoGreen)
Type: biochemical
Details: 0.8 nM Polθ, 100 nM DNA substrate, kobs vs [I] fit for 2-step covalent inhibitor
In short: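 Time-dependent inhibition was followed by quenching reactions with EDTA at points up to 60 min, then staining product DNA with PicoGreen fluorescence. Reactions held 0.8 nM E. coli-expressed Polθ, 100 nM primed DNA substrate and […] at pH 7.5, 1% DMSO. kobs versus inhibitor concentration gave Kinact and KI.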

Structure (SMILES)	Kinact/Kl [M⁻¹ s⁻¹]
C=CC(=O)N1CC(n2ccc(CN3C[C@H]4CC(=O)N(c5cc(C(F)(F)F)cc(C)n5)[C@@H]4C(=O)N(C)c4cc(F)ccc43)n2)C1 [Example 41, (3aR,11aS)-5-((1-(1-acryloylazetidin-3-yl)-1H-pyrazol-3-yl)methyl)-8-fluoro-10-methyl-1-(6-methyl-4-(trifluoromethyl)pyridin-2-yl)-1,3a,4,5,10,11a-hexahydro-2H-benzo[b]pyrrolo[2,3-f][1,4]diazocine-2,11(3H)-dione]	1.38e+06
C=CC(=O)N1CC(N2CCC(F)(CN3C[C@H]4CC(=O)N(c5cc(C(F)(F)F)cc(C)n5)[C@@H]4C(=O)N(C)c4cccc(C)c43)CC2)C1 [Example 94, (3aR,11aS)-5-((1-(1-acryloylazetidin-3-yl)-4-fluoropiperidin-4-yl)methyl)-6,10-dimethyl-1-(6-methyl-4-(trifluoromethyl)pyridin-2-yl)-1,3a,4,5,10,11a-hexahydro-2H-benzo[b]pyrrolo[2,3-f][1,4]diazocine-2,11(3H)-dione]	1.54e+06
C=CC(=O)N1CC(O[C@H]2CN(CCN3C[C@H]4CC(=O)N(c5cc(C(F)(F)F)cc(C)n5)[C@@H]4C(=O)N(C)c4cccc(F)c43)C[C@@H]2O)C1 (relative stereo) [Example 11, (3aR,11aS)-5-(2-((rel-trans)-3-((1-acryloylazetidin-3-yl)oxy)-4-hydroxypyrrolidin-1-yl)ethyl)-6-fluoro-10-methyl-1-(6-methyl-4-(trifluoromethyl)pyridin-2-yl)-1,3a,4,5,10,11a-hexahydro-2H-benzo[b]pyrrolo[2,3-f][1,4]diazocine-2,11(3H)-dione]	400000
C=CC(=O)N1CCC12CCN(CCN1C[C@H]3CC(=O)N(c4cc(C(F)(F)F)cc(C)n4)[C@@H]3C(=O)N(C)c3cccc(F)c31)C2 (single isomer, unassigned) [Example 21b]	140000
C=CC(=O)N1Cc2ccc(CN3C[C@H]4CC(=O)N(c5cc(C(F)(F)F)cc(C)n5)[C@@H]4C(=O)N(C)c4cccc(C)c43)nc2C1 [Example 240, (3aR,11aS)-5-((6-acryloyl-6,7-dihydro-5H-pyrrolo[3,4-b]pyridin-2-yl)methyl)-6,10-dimethyl-1-(6-methyl-4-(trifluoromethyl)pyridin-2-yl)-1,3a,4,5,10,11a-hexahydro-2H-benzo[b]pyrrolo[2,3-f][1,4]diazocine-2,11(3H)-dione]	1.55e+06
C=CC(=O)N1Cc2cc(CN3C[C@H]4CC(=O)N(c5cc(C(F)(F)F)cc(C)n5)[C@@H]4C(=O)N(C)c4cccc(Cl)c43)cnc2C1COC (single isomer, unassigned) [Example 237]	270000
C=CC(=O)N1CC(N2CCN(CCN3C[C@H]4CC(=O)N(c5cc(C(F)(F)F)cc(C)n5)[C@@H]4C(=O)N(C)c4cccc(Cl)c43)CC2=O)C1 [Example 112, (3aR,11aS)-5-(2-(4-(1-acryloylazetidin-3-yl)-3-oxopiperazin-1-yl)ethyl)-6-chloro-10-methyl-1-(6-methyl-4-(trifluoromethyl)pyridin-2-yl)-1,3a,4,5,10,11a-hexahydro-2H-benzo[b]pyrrolo[2,3-f][1,4]diazocine-2,11(3H)-dione]	920000
C=CC(=O)N1CC2CCC(C1)N2CCN1C[C@H]2CC(=O)N(c3cc(C(F)(F)F)cc(C)n3)[C@@H]2C(=O)N(C)c2cccc(C)c21 [Example 262, (3aR,11aS)-5-(2-(3-acryloyl-3,8-diazabicyclo[3.2.1]octan-8-yl)ethyl)-6,10-dimethyl-1-(6-methyl-4-(trifluoromethyl)pyridin-2-yl)-1,3a,4,5,10,11a-hexahydro-2H-benzo[b]pyrrolo[2,3-f][1,4]diazocine-2,11(3H)-dione]	710000
C=C(CN(C)C)C(=O)N1CC(CCCCN2C[C@H]3CC(=O)N(c4cc(C(F)(F)F)cc(C)n4)[C@@H]3C(=O)N(C)c3cccc(Cl)c32)C1 [Example 161, (3aR, 11aS)-6-chloro-5-(4-(1-(2-((dimethylamino)methyl)acryloyl)azetidin-3-yl)butyl)-10-methyl-1-(6-methyl-4-(trifluoromethyl)pyridin-2-yl)-1,3a,4,5,10,11a-hexahydro-2H-benzo[b]pyrrolo[2,3-f][1,4]diazocine-2,11(3H)-dione]	5.08e+06
C=CC(=O)N1CCN(CCN2C[C@H]3CC(=O)N(c4cc(C(F)(F)F)cc(C)n4)[C@@H]3C(=O)N(C)c3cccc(Cl)c32)CC1CC#N (mixture of isomers) [Example 258b, 2-((S/R)-1-acryloyl-4-(2-((3aR,11aS)-6-chloro-10-methyl-1-(6-methyl-4-(trifluoromethyl)pyridin-2-yl)-2,11-dioxo-1,2,3,3a,4,10,11,11a-octahydro-5H-benzo[b]pyrrolo[2,3-f][1,4]diazocin-5-yl)ethyl)piperazin-2-yl)acetonitrile]	1.53e+06
C=C(CN(C)C)C(=O)N1CCC(OCCN2C[C@H]3CC(=O)N(c4cc(C(F)(F)F)cc(C)n4)[C@@H]3C(=O)N(C)c3cccc(Cl)c32)CC1 [Example 157, (3aR,11aS)-6-chloro-5-(2-((1-(2-((dimethylamino)methyl)acryloyl)piperidin-4-yl)oxy)ethyl)-10-methyl-1-(6-methyl-4-(trifluoromethyl)pyridin-2-yl)-1,3a,4,5,10,11a-hexahydro-2H-benzo[b]pyrrolo[2,3-f][1,4]diazocine-2,11(3H)-dione]	1.57e+06
C=CC(=O)N1Cc2nc(CN3C[C@H]4CC(=O)N(c5cc(C(F)(F)F)cc(C)n5)[C@@H]4C(=O)N(C)c4cccc(Cl)c43)cn2C[C@H]1C (racemic) [Example 143b, (3aR,11aS)-5-(((S/R)-7-acryloyl-6-methyl-5,6,7,8-tetrahydroimidazo[1,2-a]pyrazin-2-yl)methyl)-6-chloro-10-methyl-1-(6-methyl-4-(trifluoromethyl)pyridin-2-yl)-1,3a,4,5,10,11a-hexahydro-2H-benzo[b]pyrrolo[2,3-f][1,4]diazocine-2,11(3H)-dione]	2.32e+06
C=CC(=O)N1Cc2ccc(CN3C[C@H]4CC(=O)N(c5cc(C(F)(F)F)cc(C)n5)[C@@H]4C(=O)N(C)c4cccc(Cl)c43)cc2[C@@H]1CC#N (racemic) [Example 288b, 2-((S/R)-2-acryloyl-6-(((3aR,11aS)-6-chloro-10-methyl-1-(6-methyl-4-(trifluoromethyl)pyridin-2-yl)-2,11-dioxo-1,2,3,3a,4,10,11,11a-octahydro-5H-benzo[b]pyrrolo[2,3-f][1,4]diazocin-5-yl)methyl)isoindolin-1-yl)acetonitrile]	500000
C=CC(=O)N1Cc2ccc(CN3C[C@H]4CC(=O)N(c5cc(C(F)(F)F)cc(C)n5)[C@@H]4C(=O)N(C)c4cccc(C)c43)nc2[C@@H]1CC#N (racemic) [Example 318b, 2-((S/R)-6-acryloyl-2-(((3aR,11aS)-6,10-dimethyl-1-(6-meth-yl-4-(trifluorometh-yl)pyridin-2-yl)-2,11-dioxo-1,2,3,3a, 4,10,11,11a-octa-hydro-5H-benzo[b]pyrrolo[2,3-f][1,4]diazocin-5-yl)meth-yl)-6,7-dihydro-5H-pyrrolo[3,4-b]pyr-idin-7-yl)acetonitrile]	1.56e+06
C#CC(=O)N1CCN(CCN2C[C@H]3CC(=O)N(c4cc(C(F)(F)F)cc(C)n4)[C@@H]3C(=O)N(C)c3cccc(C)c32)CC1 [Example 264, (3aR,11aS)-6,10-dimethyl-1-(6-methyl-4-(trifluoromethyl)pyridin-2-yl)-5-(2-(4-propioloylpiperazin-1-yl)ethyl)-1,3a,4,5,10,11a-hexahydro-2H-benzo[b]pyrrolo[2,3-f][1,4]diazocine-2,11(3H)-dione]	1.25e+06
C=CC(=O)N1CC(N2CCN(CCN3C[C@H]4CC(=O)N(c5cc(C(F)(F)F)cc(C)n5)[C@@H]4C(=O)N(C)c4cc(F)cc(Cl)c43)CC2)C1 [Example 17, (3aR,11aS)-5-(2-(4-(1-acryloylazetidin-3-yl)piperazin-1-yl)ethyl)-6-chloro-8-fluoro-10-methyl-1-(6-methyl-4-(trifluoromethyl)pyridin-2-yl)-1,3a,4,5,10,11a-hexahydro-2H-benzo[b]pyrrolo[2,3-f][1,4]diazocine-2,11(3H)-dione]	1.19e+06
C=C(CN(C)C)C(=O)N1CC(OCCCN2C[C@H]3CC(=O)N(c4cc(C(F)(F)F)cc(C)n4)[C@@H]3C(=O)Nc3cccc(C)c32)C1 [Example 191, (3aR,11aS)-5-(3-((1-(2-((dimethyl-amino)methyl)-acryloyl)azetidin-3-yl)oxy)propyl)-6-methyl-1-(6-methyl-4-(trifluoro-methyl)pyridin-2-yl)-1,3a,4,5,10, 11a-hexahydro-2H-benzo[b]pyr-rolo[2,3-f][1,4] diazocine-2, 11(3H)-dione]	1.4e+06
